Results as given in patent publication US6087131A, “β-glucosidase from filamentous fungi, and uses thereof” (Institut National de la Recherche Agronomique - I.N.R.A., priority 1995, dated 2000).

Key:
Assay type in all cases: biochemical
[1] = tested on: β-glucosidase BGII of A. oryzae (CBS 12559), exocellular, molecular mass about 30,000; assay: Inhibition of β-glucosidase BGII activity by glucose or δ-gluconolactone, PNPG as substrate; conditions: PNPG 4 mM, 20 minutes at 40° C.
Experimental: (§1) The assay of the β-glucosidase activity is carried out by incubating, for 20 minutes at 40° C., 1 volume of enzymatic sample with 1 volume of p-nitrophenol β-D-glucoside (PNPG) (4 mM in 100 mM acetate buffer, pH 4.4). The quantity of PNP (pnitrophenol) liberated is estimated by adding 6 volumes of 0.1 M Na2 CO3 and monitoring the absorbance reading at 400 nm. The enzymatic activity is expressed in nanokatals per ml (nkat/ml) of enzymatic solution. One nanokatal corresponds to the number of nanomoles of PNP liberated per second under the abovementioned conditions.
(§2) The residual enzymatic activity is estimated after incubating the mixture for 20 minutes at 40° C.

[2] = target: T1, β-glucosidase of A. niger purified from the KLERZYME enzymatic preparation (Aspergillus niger, UniProt A2RAL4); assay: Inhibition of KLERZYME β-glucosidase activity by glucose or δ-gluconolactone, PNPG as substrate
T1 construct: purchased GIST-BROCADES, SECLIN, FRANCE
T1 sequence (A2RAL4 20-860): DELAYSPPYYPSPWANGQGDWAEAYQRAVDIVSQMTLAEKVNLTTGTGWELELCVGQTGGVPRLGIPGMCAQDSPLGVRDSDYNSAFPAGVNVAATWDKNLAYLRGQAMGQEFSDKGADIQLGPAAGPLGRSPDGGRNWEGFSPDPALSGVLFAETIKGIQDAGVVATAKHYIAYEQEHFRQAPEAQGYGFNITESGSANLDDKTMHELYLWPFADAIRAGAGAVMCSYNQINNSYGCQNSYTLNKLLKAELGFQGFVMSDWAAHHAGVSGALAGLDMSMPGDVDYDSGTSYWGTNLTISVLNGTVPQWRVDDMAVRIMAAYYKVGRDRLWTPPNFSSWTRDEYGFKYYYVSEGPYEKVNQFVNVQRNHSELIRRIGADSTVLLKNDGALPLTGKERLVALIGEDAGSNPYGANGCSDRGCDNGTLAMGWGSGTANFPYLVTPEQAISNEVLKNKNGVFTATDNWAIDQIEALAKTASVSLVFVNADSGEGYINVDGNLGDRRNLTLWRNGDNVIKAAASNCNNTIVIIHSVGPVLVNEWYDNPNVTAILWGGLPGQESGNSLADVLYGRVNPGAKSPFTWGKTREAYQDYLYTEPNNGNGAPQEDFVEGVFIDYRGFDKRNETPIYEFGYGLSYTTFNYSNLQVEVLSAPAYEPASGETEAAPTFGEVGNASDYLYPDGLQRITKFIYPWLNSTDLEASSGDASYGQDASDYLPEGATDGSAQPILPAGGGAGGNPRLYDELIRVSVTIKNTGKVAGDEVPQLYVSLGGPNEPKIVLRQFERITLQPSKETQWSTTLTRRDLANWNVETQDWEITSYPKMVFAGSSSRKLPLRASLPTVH
Experimental: as §1, §2

[3] = tested on: β-glucosidase BGI of A. oryzae (CBS 12559), molecular mass greater than 130,000; assay: Inhibition of β-glucosidase BGI activity by glucose or δ-gluconolactone, PNPG as substrate
Experimental: as §1, §2

| SMILES | activity retained in the presence of gluconolactone ([1]; 1 g/l of gluconolactone) | activity retained in the presence of gluconolactone ([1]; 10 g/l of gluconolactone) [%] | inhibition in the presence of gluconolactone ([2]; KLERZYME β-glucosidase, 1 g/l of gluconolactone, PNPG 4 mM, 20 minutes at 40° C.) | inhibition in the presence of gluconolactone ([3]; 1 g/l of gluconolactone, PNPG 4 mM, 20 minutes at 40° C.) | activity retained in the presence of glucose ([1]; 25 g/l of glucose) | inhibition in the presence of glucose ([1]; 100 g/l of glucose) [%] | remaining activity at 25000 µg/mL ([2]; 20 min, pH 4.4, read-out: activity remaining in the presence of glucose) [%] | inhibition in the presence of glucose ([2]; KLERZYME β-glucosidase, 50 g/l of glucose, PNPG 4 mM, 20 minutes at 40° C.) | activity remaining in the presence of glucose ([3]; 25 g/l of glucose, PNPG 4 mM, 20 minutes at 40° C.) | inhibition in the presence of glucose ([3]; 50 g/l of glucose, PNPG 4 mM, 20 minutes at 40° C.) | Ki ([3]; read-out: inhibition constant (Ki) for glucose, with respect to PNPG, Lineweaver-Burk representation, competitive inhibitor) [mM] |
| --- | --- | --- | --- | --- | --- | --- | --- | --- | --- | --- | --- |
| O=C1O[C@H](CO)[C@@H](O)[C@H](O)[C@H]1O [gluconolactone, δ-gluconolactone] | more than 30% | 20 | practically completely inhibited | practically completely inhibited | – | – | – | – | – | – | – |
| OC[C@H]1OC(O)[C@H](O)[C@@H](O)[C@@H]1O (some centres unmarked) [glucose] | – | – | – | – | about 80% | 57 | ~10 | practically completely inhibited | about 15% | practically completely inhibited | 3.5 |
